Results: patent publication US11661404B2, “Prodrug compounds activated by AKR1C3 and their use for treating hyperproliferative disorders” (priority 2018, dated 2023)
Where two headings read alike, the source gives them in different places.

Assays:
[1] = test system: wild-type H460 lung cancer cells; experiment: Anti-proliferative IC50 assay, wild-type H460; type: cell-based, human; details: for IC50: Homo sapiens
Description: (§1) Four hundred cells were seeded in a volume of 100 μL in each well of a 96-well plate. The cells were left in a humidified incubator (37° C., 5% CO2) for 2 hours in order to enable attachment to the surface of the wells prior to compound addition. All compounds were prepared as stocks in DMSO and stored at −80° C. Frozen stocks of compounds were thawed immediately prior to addition to cells. Working solutions of each compound were made in α-MEM+5% FBS (v/v) at 3 times the required final concentration for the top well. The final concentration of DMSO in the α-MEM solution was ensured to not exceed 1% of the total volume. 50 μL of the working solution was added to the top wells (in duplicates) and gently mixed. The solubility of some compounds precluded the working solution in α-MEM to be 3 times the desired top well concentration. […] A 3-fold serial dilution was carried out along the plate starting from the top well. The first column of wells on the plate served as blanks (containing α-MEM+FBS) and the second column served as control wells (containing cells with no compound added). Following compound addition, the plates were incubated for 4 hours in a humidified incubator (37° C., 5% CO2).
(§2) Following the 4 hour compound exposure, the 96-well plates were washed three times by aspirating media with an Immuno Washer (Nunc) and each well replaced with 150 μL of α-MEM+5% (v/v) FBS+1% (v/v) P/S. The plates were left in a humidified incubator (37° C., 5% CO2) for 5 days to enable cell growth. The cells in 96-well plates were fixed 5 days after compound exposure by adding 50 μL of a 40% (w/v) trichloroacetic acid (TCA) solution so as to obtain a final TCA concentration of 10% in each well. The plates were left in the refrigerator (4° C.) for 1 hour and subsequently rinsed 3 times in tap water. Any excess water was left to drain and the cells were stained with 50 μL of 0.4% (w/v) sulforhodamine B (SRB). The plates with the SRB stain were left in the dark for 30 minutes. Excess stain was removed from the wells by rinsing the plates 4 times in water containing 1% (v/v) acetic acid. The stain was solubilised by adding 100 μL of 10 mM unbuffered Tris (pH 10.5) to each well and the plates were left in a shaker in a dark environment at room temperature for at least 1 hour. The absorbance values of the wells were determined by an ELx 808 Absorbance Microplate Reader (Bio-Tek Instruments, Winooski, Vt., USA), with the wavelength of the measurement filter set at 490 nm and a reference filter set at 450 nm. The absorbance of the reference filter was subtracted from the measurement filter to obtain a final absorbance of λ490-450 nm. The absorbance data was analysed and IC50 values determined by the KC4 microplate data analysis software (KC4™ V3.4, Bio-Tek).
(§3) Anti-proliferative IC50 assays were repeated as described above including the addition of 3 μM SN34037, a selective and potent small molecule inhibitor of AKR1C3.
Materials and methods used are as described for Example 9.

[2] = test system: wild-type HCT116 colon cancer cells; experiment: Anti-proliferative IC50 assay (SRB), wild-type HCT116; type: cell-based, human
[3] = test system: HCT116 colon cancer cells engineered to over-express AKR1C3; experiment: Anti-proliferative IC50 assay (SRB), HCT116 over-expressing AKR1C3; type: cell-based, human; details: for IC50 Ratio WT:AKR1C3: HCT116-WT vs HCT116-AKR1C3
[4] = test system: wild-type SNU398 hepatocellular carcinoma cells; experiment: Anti-proliferative IC50 assay, wild-type SNU398; type: cell-based; details: Homo sapiens
Description: as §1, §2, §3
(§4) Materials and methods used are as described for Example 9. […] This is a surprising finding and considerably greater than the approximately 77-fold, 270-fold and 400-fold increase in sensitivity observed for PR-104A, SN33540 and SN34454, respectively. In all cases, this increase in cytotoxicity resulting from expression of AKR1C3 can be substantially reversed by addition of an AKR1C3 inhibitor (SN34037), directly implicating metabolism of the prodrugs by AKR1C3 in the observed increase in cytotoxicity. As an important control, introduction of SN34037 had no anti-proliferative effects in wild-type SNU398 cells treated with compounds of the invention.

[5] = test system: SNU398 hepatocellular carcinoma cells engineered to over-express AKR1C3; experiment: Anti-proliferative IC50 assay, SNU398 over-expressing AKR1C3; type: cell-based, human; details: for IC50: Homo sapiens
Description: as §1, §2, §3, §4

[6] = NCI-H460, read-out: H460-WT +AKR1C3 Inhibitor Anti-proliferative IC50
[7] = NCI-H460, read-out: H460-WT Anti-proliferative IC50
[8] = Homo sapiens, HCT-116, read-out: HCT116-WT IC50
[9] = read-out: HCT116-WT + AKR1C3 Inhibitor IC50, with 3 μM SN34037
[10] = Homo sapiens, HCT-116, read-out: HCT116-AKR1C3 IC50
[11] = read-out: HCT116-AKR1C3 + AKR1C3 Inhibitor IC50, with 3 μM SN34037
[12] = SNU-398, read-out: SNU398-WT +AKR1C3 Inhibitor Anti-proliferative IC50
[13] = SNU-398, read-out: SNU398-WT Anti-proliferative IC50
[14] = SNU-398, read-out: SNU398-AKR1C3 +AKR1C3 Inhibitor Anti-proliferative IC50
[15] = SNU-398, read-out: SNU398-AKR1C3 Anti-proliferative IC50

SMILES	IC50 [1, 6]	IC50 [1, 7]	IC50 [2, 8]	IC50 [2, 9]	IC50 Ratio WT:AKR1C3 [3]	IC50 [3, 10]	IC50 [3, 11]	IC50 [4, 12]	IC50 [4, 13]	more cytotoxic in H460 cells than SN34454 [1]	IC50 [5, 14]	IC50 [5, 15]	more cytotoxic in H460 cells than SN33540 [1]	more cytotoxic in H460 cells than SN34118 [1]	increase in sensitivity when SNU398 cells express AKR1C3 ([5]; SNU398-WT vs SNU398-AKR1C3)
CN1CCN(C(=O)c2cc([N+](=O)[O-])ccc2N(CCBr)CCBr)CC1 [SN34118, reference compound]	28.9 µM	1.56 µM	38.2 µM	29.3 µM	98	389 nM	23900 nM	–	–	–	–	–	–	–	–
CN1CCN(S(=O)(=O)c2cc([N+](=O)[O-])ccc2N(CCBr)CCOS(C)(=O)=O)CC1 [Compound 602, 2-((2-bromoethyl)(2-((4-methylpiperazin-1-yl)sulfonyl)-4-nitrophenyl)amino)ethyl methanesulfonate]	4.19 µM	0.004 µM	4.26 µM	4.33 µM	4260	1 nM	1780 nM	6.65 µM	6.74 µM	102 fold	2660 nM	3 nM	–	–	–
CS(=O)(=O)OCCN(CCBr)c1c(C(=O)NCCO)cc([N+](=O)[O-])cc1[N+](=O)[O-] [PR-104A, 2-((2-bromoethyl)(2-((2-hydroxyethyl)-carbamoyl)-4,6-dinitrophenyl)amino)ethyl methanesulfonate, reference compound]	50 µM	2.7 µM	55.8 µM	70.7 µM	50	1120 nM	41800 nM	92.4 µM	89.8 µM	–	89900 nM	1160 nM	–	–	–
CN1CCN(S(=O)(=O)c2cc([N+](=O)[O-])ccc2N(CCOS(C)(=O)=O)CCOS(C)(=O)=O)CC1 [Compound 641, ((2-((4-methylpiperazin-1-yl)sulfonyl)-4-nitrophenyl)azanediyl)bis(ethane-2,1-diyl) dimethanesulfonate]	5.86 µM	0.003 µM	5.91 µM	6.4 µM	2955	2 nM	3110 nM	15.4 µM	10.3 µM	135 fold	5070 nM	4 nM	179 fold	520 fold	–
CS(=O)(=O)OCCN(CCBr)c1ccc([N+](=O)[O-])cc1S(=O)(=O)N1CCN(CC(O)CO)CC1 (stereo not shown) [Compound 605, 2-((2-bromoethyl)(2-((4-(2,3-dihydroxypropyl)piperazin-1-yl)sulfonyl)-4-nitrophenyl)amino)ethyl methanesulfonate]	7.8 µM	0.025 µM	6.18 µM	6.9 µM	687	9 nM	3540 nM	14.4 µM	16.2 µM	–	10500 nM	28 nM	–	–	–
O=[N+]([O-])c1ccc(N(CCBr)CCBr)c(S(=O)(=O)N2CCN(CC(O)CO)CC2)c1 (stereo not shown) [Compound 566, 3-(4-((2-(bis(2-bromoethyl)amino)-5-nitrophenyl)sulfonyl)piperazin-1-yl)propane-1,2-diol]	4.03 µM	0.004 µM	3.34 µM	3.93 µM	3340	1 nM	1720 nM	10.2 µM	9.64 µM	–	6410 nM	11 nM	–	–	–
CN1CCN(C(=O)c2cc([N+](=O)[O-])ccc2N(CCBr)CCOS(C)(=O)=O)CC1 [SN34454, reference compound]	46 µM	0.406 µM	–	–	–	–	–	48.9 µM	60.5 µM	–	62700 nM	150 nM	–	–	~400 fold
